Source: patent publication US9562082B2, “Production of glycoproteins with low N-glycolylneuraminic acid (Neu5Gc) content” (LEK Pharmaceuticals D.D., priority 2009, dated 2017)

Assays:
Type in all cases: cell-based, Chinese hamster
[1] = system: Recombinant CHO cells; test: Titre of secreted glycoprotein by ELISA
Description: Cell viability was determined by the trypan blue exclusion method. The cell concentration was determined using a Vi-CELL™ Series Cell Viability Analyzer (Beckman Coulter, Fullerton, Calif., USA). Glucose, lactate, glutamine, and ammonia (NH4^+) concentrations were measured during the growth phase using a BioProfile Analyzer for mammalian cell culture (BioProfile 100 plus, Nova Biomedical, Waltham, USA). Additionally, oxygen and […] concentrations were monitored daily using pHOx (Stat Prophile pHOx Basic, Nova Biomedical, Waltham, USA). Secreted glycoprotein concentrations were quantified by enzyme linked immunosorbent assay (ELISA), and the titres were expressed in μg/ml.
The concentration of the secreted glycoproteins was quantified using an enzyme linked immunosorbent assay kit from R&D Systems (R&D Systems, Inc., Minneapolis, Minn., USA) according to the manufacturer's instructions. Microplate wells, pre-coated with monoclonal (mouse) antibodies specific for the respective glycoproteins expressed were first incubated with standard blank samples and specimens. […] The absorbance of the coloured solution was measured photometrically at 450 nm (Micro plate reader, Tecan, Columbus, USA) and was proportional to the concentration of the glycoprotein in the sample.

[2] = system: Recombinant CHO cells; test: Content of the most acidic isoforms 7 and 8 (degree of sialylation) of secreted glycoprotein by AEX; conditions: for percentage of the most acidic isoforms: 0.75% (w/v) DMSO
Description: Throughout the entire description, above and below and including the examples, unless explicitly stated otherwise, the degree of sialylation is given in % (w/w) and was calculated as follows. Since the inventor had not available a method to directly measure the degree of sialylation (%, w/w), she estimated same indirectly from the relative content of the most acidic isoforms of each glycoprotein. Since isoforms 7 and 8 (see next paragraph) are the most acidic ones, she figured out that an increase of isoforms 7 and 8 is an indicator for the increased degree of sialylation. The inventor measured the distribution of the isoforms of a particular glycoprotein (e.g., of darbepoetin alfa, which is a cytokine) with AEX (anion exchange chromatography). AEX is not a quantitative method. Therefore, the inventor split the histogram into three parts as follows: the most basic isoforms 1, 2, and 3, the middle acidic isoforms 4, 5, and 6, and the most acidic isoforms 7 and 8. […] Therefore, the inventor compared, for each glycoprotein tested, the content (%, w/w) of the most acidic isoforms resulting from media without and from media with the additives according to the invention. In case their content increased, the inventor concluded that the degree of sialylation had likewise increased. Therefore, the degree of sialylation in the present application is given as the relative content of the most acidic isoforms (%, w/w). The increase in the degree of sialylation (of a particular glycoprotein obtained from a host cell culture using a medium with the additives according to the present invention vs. that of said glycoprotein obtained from a host cell culture using a medium without the inventive additives) is given on the basis of the increase of the content of the most acidic isoforms (%) after cultivating the host cells in the presence vs. absence of said additives. Recombinant CHO cells expressing high titres of the glycosylated human glycoproteins were cultivated in suspension culture using rich in-house standard medium without additives according to the invention. After 2 weeks of passages, the cells were first harvested and subsequently inoculated into the same medium, however, supplemented with a range of DMSO concentrations from 0.25% to 1.50% (w/v). The effect of DMSO on growth, productivity, degree of sialylation, and Neu5Gc content was studied. “One factor at the time”-experiments with different DMSO concentrations at 37° C. and 33° C., respectively, were performed at first in an attempt to determine the DMSO concentration and temperature which are best to minimise the Neu5Gc content on the glycoproteins secreted. To study the interaction between the parameters (i) DMSO concentration, (ii) time of DMSO addition, and (iii) time of the temperature shift (from 37° C. to 33° C.), further experiments were performed with the Design-Expert/Design-Ease programme (Stat-Ease, Inc., Minneapolis, Minn., USA) using the response surface method. Parameters (i), (ii), and (iii) were chosen as numeric factors and the axial points were set slightly out of already known ranges in order to cover a wide design space. One replicate on axial points, one replicate on factorial points and 4 centre points were performed. The results were analysed using the Design of Expert (DOE) software (Design-Expert, Version 7.1). The results of the shake flask experiments were confirmed in the Biostat®B bioreactor (Sartorius, B. Braun Biotech International, Germany). Exponentially growing cells were taken from cell culture flasks having a surface area of 225 cm^2 (Corning®Costar®). A Biostat®B bioreactor with a working volume of 5 litres was inoculated with 2×10^5 cells/ml. […] Following glycoprotein purification, the isoform distribution of the immuno-affinity purified glycoproteins was determined by anion exchange chromatography (AEX). The chromatographic separation of various isoforms is based on the differences in their charges. […]

[3] = system: Recombinant CHO cells; test: Specific productivity (Qp); conditions: DMSO 0.75, temperature 37
Description: According to the optimal range of the DMSO concentration, a numerical and graphical optimisation was performed using DOE software (FIG. 3). A minimal content of Neu5Gc and a maximal content of the most acidic isoforms were chosen as very important parameters, while increased titres and growth rates were weighted as medium important parameters. The ramps were extended a little over the limits. […] The specific productivity (Qp) was calculated following Equation 1 and expressed as pg of glycoprotein/[…]=(P2-P1)/((X2+X1)*(t2-t1)/2) Equation 1 (P2 and P1 are concentrations of secreted glycoprotein at the end and at the beginning of the repeated batches, respectively; X1 and X2 are cell concentrations at the corresponding time points t1 and t2).

Structure (SMILES): C[S+](C)[O-] [DMSO, dimethyl sulfoxide]
- Titre, DOE point prediction ([1]; DMSO 0.75, temperature 37): 65.56 µg/mL
- titre ([1]; darbepoetin alfa, with DMSO): ~57 µg/mL
- average content of the most acidic isoforms, all glycoproteins tested ([2]; 0.5% DMSO): 1.31%
- average content of the most acidic isoforms, all glycoproteins tested ([2]; 0.75% DMSO): 1.28%
- average content of the most acidic isoforms, all glycoproteins tested ([2]; 1% DMSO): 1.21%
- average content of the most acidic isoforms, all glycoproteins tested ([2]; 1.25% DMSO): 1.26%
- Isoforms 7&8, DOE point prediction ([2]; DMSO 0.75, temperature 37): 1.21%
- percentage of the most acidic isoforms ([2]; bioreactor batch process): about 2.2%
- percentage of the most acidic isoforms ([2]; shake flask batch process): about 1.35%
- Specific productivity, DOE point prediction [3]: 2.43 pcd
